The values that follow come from US20250263424A1, “KRAS INHIBITORS” (Bristol-Myers Squibb Company, priority 2022, published 2025).

Like-named read-outs stand apart in the source and are kept apart here.

The target in the assay is Recombinant GMPPNP-loaded KRAS G12C (KRAS-G12C(ON), active form) (Homo sapiens, UniProt P01116, G12C). Nature of the assay: KRAS G12C RAF Disruption Assay (HTRF). The class given is biochemical. The following applies: GMPPNP-loaded KRAS G12C 5 nM, GST-RAF1 RBD 9 nM, read-out: KRASG12C RAF Disruption Assay (IC50). The method in brief: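 GMPPNP-loaded KRAS G12C (5 nM) preincubated with compound 20 min at room temperature in Tris pH 7.5 buffer with MgCl2, DTT and BSA. GST-RAF1 RBD (9 nM) then added for 20 min, and SA-Tb (0.25 nM) for 3 h. HTRF 520/495 ratio read; IC50 taken from the dose-response curve.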

One may read the IC50 as the point on the concentration scale where inhibition reaches its midpoint.

Sequence of Recombinant GMPPNP-loaded KRAS G12C (KRAS-G12C(ON), active form) (P01116 1-188 isoform P01116-2 G12C): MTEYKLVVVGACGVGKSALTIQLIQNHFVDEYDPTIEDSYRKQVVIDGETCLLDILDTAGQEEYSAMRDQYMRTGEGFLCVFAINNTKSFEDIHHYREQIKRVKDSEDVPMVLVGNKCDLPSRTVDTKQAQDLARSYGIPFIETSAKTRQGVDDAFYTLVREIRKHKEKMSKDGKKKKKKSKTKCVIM

With `C#Cc1cccc2cccc(-c3ccc4c(N5CCN(C(=O)/C(F)=C/c6ccccn6)[C@@H](CC#N)C5)nc(OC[C@@]56CCCN5C[C@H](F)C6)nc4c3F)c12` [Example 85, 2-((S)-4-(7-(8-ethynylnaphthalen-1-yl)-8-fluoro-2-(((2R,7aS)-2-fluorotetrahydro-1H-pyrrolizin-7a(5H)-yl)methoxy)quinazolin-4-yl)-1-((Z)-2-fluoro-3-(pyridin-2-yl)acryloyl)piperazin-2-yl)acetonitrile], the IC50 (values in nM) is 25 nM. Turning to `CN1CCC[C@H]1COc1nc(N2CCN(C(=O)/C(F)=C/c3ncccn3)[C@@H](CC#N)C2)c2ccc(-c3cc(Cl)ccc3OC(F)(F)F)c(F)c2n1` [Example 67, 2-((S)-4-(7-(5-chloro-2-(trifluoromethoxy)phenyl)-8-fluoro-2-(((S)-1-methylpyrrolidin-2-yl)methoxy)quinazolin-4-yl)-1-((Z)-2-fluoro-3-(pyrimidin-2-yl)acryloyl)piperazin-2-yl)acetonitrile], the IC50 (values in nM) was 4700 nM. As to `CCc1cccc2cccc(-c3ccc4c(N5CCN(C(=O)/C(F)=C/c6cnccn6)[C@@H](CC#N)C5)nc(OC[C@@H]5CCCN5C)nc4c3F)c12` [Example 58, 2-((S)-4-(7-(8-ethylnaphthalen-1-yl)-8-fluoro-2-(((S)-1-methylpyrrolidin-2-yl)methoxy)quinazolin-4-yl)-1-((Z)-2-fluoro-3-(pyrazin-2-yl)acryloyl)piperazin-2-yl)acetonitrile], the IC50 (values in nM) came to 2400 nM. Still for that read-out and setting: the result for `C#Cc1c(F)ccc2cc(O)cc(-c3ccc4c(N5C[C@H]6CC[C@@H](C5)N6C(=O)/C(F)=C/c5cccc(C)n5)nc(OC[C@@H]5CCCN5C)nc4c3F)c12` [Example 35, (Z)-1-((1R,5S)-3-(7-(8-ethynyl-7-fluoro-3-hydroxynaphthalen-1-yl)-8-fluoro-2-(((S)-1-methylpyrrolidin-2-yl)methoxy)quinazolin-4-yl)-3,8-diazabicyclo[3.2.1]octan-8-yl)-2-fluoro-3-(6-methylpyridin-2-yl)prop-2-en-1-one] reads 290 nM. With `Cc1cc(N)nc(-c2c(Cl)cc3c(N4C[C@H]5CC[C@@H]4[C@@H]5NC(=O)/C(F)=C/c4nccs4)nc(OC[C@@H]4CCCN4C)nc3c2F)c1C(F)(F)F` (atropisomer, axis not shown; (M)) [Example 49, (2Z)-N-[(1R,4R,7R)-2-[(7M)-7-[6-amino-4-methyl-3-(trifluoromethyl)pyridin-2-yl]-6-chloro-8-fluoro-2-{[(2S)-1-methylpyrrolidin-2-yl]methoxy}quinazolin-4-yl]-2-azabicyclo[2.2.1]heptan-7-yl]-2-fluoro-3-(1,3-thiazol-2-yl)prop-2-enamide], the IC50 (values given in μM) was 2260 nM.

Turning to `CN1CCC[C@H]1COc1nc(N2CCN(C(=O)/C(F)=C/c3ccccn3)CC2)c2ccc(-c3cc(O)cc4ccccc34)c(F)c2n1` [Example 28, (S,Z)-2-fluoro-1-(4-(8-fluoro-7-(3-hydroxynaphthalen-1-yl)-2-((1-methylpyrrolidin-2-yl)methoxy)quinazolin-4-yl)piperazin-1-yl)-3-(pyridin-2-yl)prop-2-en-1-one], the IC50 (values in nM) was 350 nM. `N#CC[C@H]1CN(c2nc(OC[C@@]34CCCN3C[C@H](F)C4)nc3c(F)c(-c4cccc5cccc(Cl)c45)ccc23)CCN1C(=O)/C(F)=C/c1ccccn1` [Example 41, 2-((S)-4-(7-(8-chloronaphthalen-1-yl)-8-fluoro-2-(((2R,7aS)-2-fluorotetrahydro-1H-pyrrolizin-7a(5H)-yl)methoxy)quinazolin-4-yl)-1-((Z)-2-fluoro-3-(pyridin-2-yl)acryloyl)piperazin-2-yl)acetonitrile]: the IC50 (values in nM) was determined as 46 nM.

Regarding `Cc1cccc(/C=C(\F)C(=O)N2CCN(c3nc(OC[C@@H]4CCCN4C)nc4c(F)c(-c5cc(O)cc6ccccc56)ccc34)C[C@@H]2CC#N)n1` [Example 34, 2-((S)-1-((Z)-2-fluoro-3-(6-methylpyridin-2-yl)acryloyl)-4-(8-fluoro-7-(3-hydroxynaphthalen-1-yl)-2-(((S)-1-methylpyrrolidin-2-yl)methoxy)quinazolin-4-yl)piperazin-2-yl)acetonitrile], where the note is “values in nM”, the IC50 was determined as 27 nM.

Turning to `C#Cc1c(F)ccc2cc(O)cc(-c3ccc4c(N5C[C@H]6CC[C@@H](C5)N6C(=O)/C(F)=C/c5ccccn5)nc(OC[C@]56CCC[C@H]5N(C)CCC6)nc4c3F)c12` [Example 27, (Z)-1-((1R,5S)-3-(7-(8-ethynyl-7-fluoro-3-hydroxynaphthalen-1-yl)-8-fluoro-2-(((4aS,7aR)-1-methyloctahydro-4aH-cyclopenta[b]pyridin-4a-yl)methoxy)quinazolin-4-yl)-3,8-diazabicyclo[3.2.1]octan-8-yl)-2-fluoro-3-(pyridin-2-yl)prop-2-en-1-one], for the setting “values in nM”, the IC50 was 6.4 nM.
